One may read the GI50 as the concentration at which growth is held to half of that of the control.

The results in this text go back to ChEMBL document CHEMBL1201862, “PubChem BioAssay data set” (2004).

SMILES strings stand for the structures.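 Cultured in 96-well plates, cells were exposed to test compound for 48 hours across five concentrations. GI50 is the concentration that inhibits growth by half.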 The source made the active and inactive calls. No stated cut-off is given here; in the data, active = GI50 up to about 1.1 µM and inactive = higher. Some results are limits rather than exact numbers.

Some test systems named below: SF-539; SNB-19; RXF 393; OVCAR-4; SNB-75; SR; HCT-116; KM12; HCC 2998; CCRF-CEM; SK-MEL-2; SW-620; IGROV-1; OVCAR-3; HOP-92; HL-60; NCI/ADR-RES; NCI-H226; NCI-H522; UACC-257.
Experiment in all cases: DTP human tumour cell line panel, 48 h

As to `CCOC(=O)c1c(C)n(CCN2CCN(C)CC2)c2ccc(OC)cc12`, the GI50 is 30 µM (inactive) in the assay on SF-539; 90.2 µM (inactive) with SNB-19; 30.1 µM (inactive) with RXF 393; 48.6 µM (inactive) in the assay with OVCAR-4; 24.8 µM (inactive) in the assay with SNB-75; 20 µM (inactive) in the assay on SR. Besides, the GI50 is 38.4 µM (inactive) in the assay on HCT-116; 44.3 µM (inactive) in the assay with KM12; 16.6 µM (inactive) in the assay with HCC 2998; 24 µM (inactive) in the assay with CCRF-CEM; 17.6 µM (inactive) with SK-MEL-2; 37.5 µM (inactive) with SW-620. The GI50 in the assay with IGROV-1 is 31.2 µM (inactive); with OVCAR-3, > 100 µM (inactive); in the assay with HOP-92, 14 µM (inactive); in the assay with HL-60 it was 19.6 µM (inactive); with NCI/ADR-RES, 69.7 µM (inactive); with NCI-H226, 29.7 µM (inactive). In addition, the GI50 was 28.6 µM (inactive) with NCI-H522 and 16.9 µM (inactive) with UACC-257.

For the compound `Nc1ccc(-c2ccc(Nc3cc(S(=O)(=O)O)c(N)c4c3C(=O)c3ccccc3C4=O)cc2)c(S(=O)(=O)O)c1`, the GI50 in the assay with SF-539, with SNB-19, with RXF 393, in the assay with OVCAR-4, in the assay on SNB-75 and in the assay on SR was > 100 µM (inactive) in each case. In addition, the GI50 in the assay on HCT-116, in the assay on KM12, in the assay with HCC 2998, in the assay on CCRF-CEM, with SK-MEL-2 and with SW-620 was > 100 µM (inactive) each time. The GI50 in the assay on IGROV-1, in the assay on OVCAR-3, in the assay with HOP-92, in the assay with HL-60, in the assay with NCI/ADR-RES and in the assay with NCI-H226 was > 100 µM (inactive) each time. The GI50 in the assay on NCI-H522 and in the assay on UACC-257 was > 100 µM (inactive) each time.

As to `C[C@]12CC[C@@H]3c4cc(OCC(F)(F)F)c(O)cc4CC[C@H]3[C@@H]1CC[C@@H]2O`, the GI50 in the assay on SF-539 was 1.38 µM (inactive); in the assay on SNB-19, 2.75 µM (inactive); with RXF 393 it was 1.52 µM (inactive); in the assay with OVCAR-4, 17.9 µM (inactive); in the assay on SNB-75 it was 1.63 µM (inactive); in the assay with SR it was 0.335 µM (active). Further, the GI50 with HCT-116 is 1.9 µM (inactive); in the assay on KM12, 4.06 µM (inactive); in the assay on HCC 2998, 5.93 µM (inactive); in the assay with CCRF-CEM, 1.51 µM (inactive); with SK-MEL-2, 4.55 µM (inactive); in the assay with SW-620, 1.05 µM (active). Further, the GI50 was 6.89 µM (inactive) in the assay with IGROV-1; 0.459 µM (active) in the assay with OVCAR-3; 9.31 µM (inactive) in the assay with HOP-92; 0.403 µM (active) in the assay with HL-60; 2.24 µM (inactive) in the assay on NCI/ADR-RES; 7.05 µM (inactive) in the assay on NCI-H226. Also, the GI50 with NCI-H522 is 0.558 µM (active); in the assay on UACC-257 it was 7.1 µM (inactive).

Regarding `CC(C)(C)C(=O)C(C#N)C(=O)C(C)(C)C`, the GI50 was > 100 µM (inactive) with SF-539; > 100 µM (inactive) in the assay on SNB-19; > 100 µM (inactive) in the assay on RXF 393; > 100 µM (inactive) with OVCAR-4; > 100 µM (inactive) in the assay with SNB-75; 0.0697 µM (active) in the assay on SR. In addition, the GI50 in the assay on HCT-116, with KM12, with HCC 2998, with CCRF-CEM, in the assay with SK-MEL-2 and in the assay on SW-620 was > 100 µM (inactive) throughout. For the same compound, the GI50 with IGROV-1, in the assay with OVCAR-3, in the assay with HOP-92, in the assay with HL-60, in the assay on NCI/ADR-RES and in the assay on NCI-H226 was > 100 µM (inactive) throughout. Further, the GI50 in the assay on NCI-H522 and with UACC-257 was > 100 µM (inactive) in each case.

Consider `COc1ccccc1CC(=O)C(O)(C(F)(F)F)C(F)(F)F`, for which the GI50 with SF-539 is > 100 µM (inactive); in the assay on SNB-19 it was > 100 µM (inactive); in the assay with RXF 393, > 100 µM (inactive); in the assay with OVCAR-4, > 100 µM (inactive); with SNB-75, 12.7 µM (inactive); with SR, > 100 µM (inactive). For the same compound, the GI50 in the assay with HCT-116, with KM12, with HCC 2998, in the assay on CCRF-CEM, in the assay on SK-MEL-2 and in the assay with SW-620 was > 100 µM (inactive) throughout. The GI50 in the assay with IGROV-1, with OVCAR-3, in the assay on HOP-92, with HL-60, in the assay on NCI/ADR-RES and with NCI-H226 was > 100 µM (inactive) each time. The GI50 in the assay on NCI-H522 and with UACC-257 was > 100 µM (inactive) throughout.

Consider `O=C1Cc2c(-c3ccc(Cl)cc3)cc(-c3ccccc3)nc2-c2ccccc2N1`, for which the GI50 is 8.87 µM (inactive) in the assay with SF-539; 1.87 µM (inactive) in the assay with SNB-19; 4.81 µM (inactive) in the assay on RXF 393; 6.62 µM (inactive) with OVCAR-4; 3.82 µM (inactive) in the assay with SNB-75; 7.13 µM (inactive) with SR. The GI50 was 3.44 µM (inactive) with HCT-116; 9.25 µM (inactive) in the assay with KM12; 4.06 µM (inactive) in the assay with HCC 2998; 6.35 µM (inactive) in the assay on CCRF-CEM; 26.6 µM (inactive) with SK-MEL-2; 11 µM (inactive) with SW-620. The GI50 in the assay with IGROV-1 is 6.95 µM (inactive); in the assay with OVCAR-3, 11.7 µM (inactive); in the assay on HOP-92, 2.4 µM (inactive); in the assay with HL-60, 10.7 µM (inactive); in the assay on NCI/ADR-RES it was 6.19 µM (inactive); with NCI-H226 it was 10.8 µM (inactive). The GI50 in the assay on NCI-H522 is 8.38 µM (inactive); in the assay with UACC-257, 25.4 µM (inactive).

Turning to `COc1ccc(CCNC(=O)CCCCCO)cc1OC`, the GI50 in the assay on SF-539, in the assay with SNB-19, in the assay with RXF 393, in the assay with OVCAR-4, in the assay with SNB-75 and in the assay with SR was > 100 µM (inactive) in each case. Besides, the GI50 with HCT-116, with KM12, with HCC 2998, with CCRF-CEM, with SK-MEL-2 and in the assay on SW-620 was > 100 µM (inactive) in each case. The GI50 in the assay with IGROV-1, in the assay on OVCAR-3, in the assay on HOP-92, with HL-60, in the assay on NCI/ADR-RES and with NCI-H226 was > 100 µM (inactive) each time. The GI50 in the assay with NCI-H522 and in the assay with UACC-257 was > 100 µM (inactive) each time.

Take `CC(C)(C)OC(=O)NCCNC(=O)CN(CC(=O)O)C1CCCCC1N(CC(=O)O)CC(=O)O` (stereo not given): the GI50 in the assay on SF-539, in the assay with SNB-19, in the assay with RXF 393, in the assay with OVCAR-4, in the assay on SNB-75 and in the assay with SR was > 100 µM (inactive) in each case. Moreover, the GI50 in the assay with HCT-116, in the assay with KM12, in the assay on HCC 2998, in the assay with CCRF-CEM, with SK-MEL-2 and in the assay with SW-620 was > 100 µM (inactive) in each case. Besides, the GI50 in the assay with IGROV-1, in the assay on OVCAR-3, in the assay with HOP-92, with HL-60, in the assay on NCI/ADR-RES and in the assay with NCI-H226 was > 100 µM (inactive) each time. For the same compound, the GI50 in the assay on NCI-H522 and in the assay with UACC-257 was > 100 µM (inactive) each time.

Regarding `CC[S+]([O-])c1c2cc(OC)ccc2nc2ccc(OC)cc12` (stereo not given), the GI50 in the assay on SF-539 was 6.79 µM (inactive); with SNB-19, 20 µM (inactive); in the assay on RXF 393, 4.71 µM (inactive); with OVCAR-4, 17 µM (inactive); in the assay on SNB-75 it was 21 µM (inactive); in the assay on SR, 3.51 µM (inactive). Besides, the GI50 in the assay on HCT-116 was 3.19 µM (inactive); in the assay on KM12 it was 16.2 µM (inactive); in the assay with HCC 2998, 16.6 µM (inactive); in the assay on CCRF-CEM, 3.79 µM (inactive); in the assay with SK-MEL-2 it was 17.5 µM (inactive); in the assay on SW-620, 6.84 µM (inactive). The GI50 was 4.94 µM (inactive) in the assay with IGROV-1; 6 µM (inactive) with OVCAR-3; 7.16 µM (inactive) in the assay with HOP-92; 4.99 µM (inactive) with HL-60; 20.4 µM (inactive) in the assay on NCI/ADR-RES; 21.8 µM (inactive) with NCI-H226. The GI50 is 1.83 µM (inactive) with NCI-H522 and 5.45 µM (inactive) in the assay on UACC-257.

As for `Cc1c(/N=C\c2ccc(N(CCC#N)CCC#N)cc2)c(=O)n(-c2ccccc2)n1C`, the GI50 with SF-539 was 31.6 µM (inactive); in the assay with SNB-19, 41.8 µM (inactive); in the assay on RXF 393 it was 24 µM (inactive); in the assay with OVCAR-4, > 100 µM (inactive); in the assay with SNB-75, 20.7 µM (inactive); in the assay on SR, > 100 µM (inactive). For the same compound, the GI50 is > 100 µM (inactive) in the assay on HCT-116; > 100 µM (inactive) in the assay on KM12; > 100 µM (inactive) in the assay on HCC 2998; > 100 µM (inactive) with CCRF-CEM; > 96.6 µM (inactive) in the assay with SK-MEL-2; > 100 µM (inactive) in the assay on SW-620. Also, the GI50 was > 93.5 µM (inactive) in the assay with IGROV-1; > 90.6 µM (inactive) with OVCAR-3; 45.7 µM (inactive) with HOP-92; > 100 µM (inactive) in the assay on HL-60; > 100 µM (inactive) in the assay on NCI/ADR-RES; > 100 µM (inactive) with NCI-H226. The GI50 in the assay with NCI-H522 and with UACC-257 was > 100 µM (inactive) throughout.
